Results on seven compounds are retold here after US20250040546A1, “DETERGENT FOR VIRAL INACTIVATION” (Bristol-Myers Squibb Company, priority 2021, published 2025).

Read-outs that look alike come from different tables or passages of the source.

In one series the test system is X-MuLV. The series is described as follows: Detergent-mediated virus inactivation of X-MuLV in mAb1 harvest (pfu-based LRV). It is filed as cell-based, Xenotropic Murine Leukemia Virus. The following applies: for Log reduction value (LRV) of X-MuLV: 60 minutes hold at 2-8° C. As for the experimental part: (§1) Three lipid-enveloped viruses X-MuLV, HSV-1 and A-MuLV (Amphotropic Murine Leukemia Virus) were investigated for VI in the cell culture fluid of a monoclonal antibody (mAb1) and a fusion protein (Fus1) for a range of detergents and detergent concentrations (FIG. 6). Protein concentration and buffer matrix were dictated by that in the harvest for the specific therapeutic and process. A temperature of 2-8° C. was used as a worst case for inactivation and incubation times of 0, 5 and 60 minutes were used to explore the kinetics of inactivation. Viral clearance was measured in units of Log Reduction Value (LRV) which was calculated from pfu (Plaque Forming Units) as follows
(§2) Virus inactivation studies were conducted for X-MuLV in mAb1 harvest, HSV-1 and A-MuLV in Fus1 harvest at 0, 5 and 60 minutes at 2-8° C. The inactivation studies for each condition were conducted in duplicates with results varying within 0.5 LRV. The lower of the two LRVS was plotted in FIG. 6 to remain conservative regarding the extent of inactivation. The error bars represent the assay variability.
The mechanism of detergent-mediated VI can share similarities with pH-mediated VI and is likely a characteristic of the detergent-protein-virus system under consideration. Detergents could unfold or denature specific viral surface glycoproteins that are critical for the host cell infection as is the case for X-MuLV [Brorson et al. (2003) Biotechnology and Bioengineering 82(3):321-329; Simons & Ehehalt (2002) Journal of Clinical Investigation 110(5):597-603]. Alternately, detergents could inactivate viruses such as HSV-1 through dissolution of the viral lipid envelope or preferential partitioning of the membrane protein into detergent micelles [Welling-Wester et al. (1998) Journal of chromatography A 816(1):29-37]. Three lipid-enveloped viruses commonly used for viral validation studies, X-MuLV, HSV-1 and A-MuLV (Amphotropic Murine Leukemia Virus), were investigated for VI. Any VI condition showing LRV ≥4.0 after a 60 minute hold at 2-8° C., worst case temperature for VI, was considered effective. The extent of inactivation from different detergents was compared with Triton X-100.

For series [1] the following is noted: Slinde & Flatmark (1976); cited from earlier work.
A short description of another series: Isoelectric point (pI). It is filed as physicochemical.
Series [2] in a line: Sialic acid content of Fus1 and Fus2 Protein A eluates of detergent-spiked harvest. It is filed as physicochemical. To be noted: stated as within acceptable range. Here is the method:
Sialic acids are neuraminic acids modified by the addition of an acetyl group (N-acetylneuraminic acid/NANA) or a glycol group (N-glycolylneuraminic acid/NGNA) .Sialic acid contents are reported as normalized molar ratios, which are the total moles of NANA and NGNA per mole of recombinant protein. The protein concentrations were determined by UV absorbance at 280 nm. Sialic acid content was determined by partial acidic hydrolysis using sulfuric acid at 0.1 N final concentration at 80° C. for 1 hour followed by reversed phase HPLC using Rezex Monosaccharide RHM HPLC column (Phenomenex, Catalog No. OOH-0132-KO with respective guard column (Phenomenex, Catalog No. 03B-0132-KO). Elution was conducted with 5 mM Sulfuric acid at 0.6 mL/min and 40° C.

A further series deals with A-MuLV. The series is described as follows: Detergent-mediated virus inactivation of A-MuLV in Fus1 harvest (pfu-based LRV). It is filed as cell-based, Amphotropic Murine Leukemia Virus. To be noted: detergent concentration not stated. As for the experimental part:
as §1, §2
The mechanism of detergent-mediated VI can share similarities with pH-mediated VI and is likely a characteristic of the detergent-protein-virus system under consideration. […]

For a further series, the system named is HSV-1. The series is described as follows: Detergent-mediated virus inactivation of HSV-1 in Fus1 harvest (pfu-based LRV). It is filed as cell-based, Herpes Simplex Virus type 1. The following applies: detergent concentration not stated.
For series [3] the following is noted: cited from earlier work.
A further series deals with T1, Fus2 (Homo sapiens, UniProt P16410, A66Y/L141E).
T1 construct: made in house; host or cells: CHO
T1 sequence (P16410 with tags, fused parts or gaps A66Y/L141E limits assumed): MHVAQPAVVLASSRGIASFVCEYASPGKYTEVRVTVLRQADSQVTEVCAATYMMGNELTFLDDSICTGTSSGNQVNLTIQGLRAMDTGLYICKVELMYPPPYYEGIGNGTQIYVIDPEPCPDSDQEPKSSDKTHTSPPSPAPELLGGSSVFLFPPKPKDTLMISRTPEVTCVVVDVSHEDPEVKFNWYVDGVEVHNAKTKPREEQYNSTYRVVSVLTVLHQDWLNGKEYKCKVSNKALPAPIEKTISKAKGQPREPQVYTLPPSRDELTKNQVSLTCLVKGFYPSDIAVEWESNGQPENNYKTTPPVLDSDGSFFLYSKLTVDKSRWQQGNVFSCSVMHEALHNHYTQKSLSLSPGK
The series is described as follows: Oxidation of Fus2 (tryptic digest RP-UPLC) after detergent spiking of harvest. It is filed as physicochemical. To be noted: Fus2 harvest spiked with detergent at 1×CMC, protein A eluate. As for the experimental part: (§3) The protein sample was denatured in denaturation buffer (8 M guanidine, 50 mM TRIS, pH 8.0) and the cystine disulfide bridges were reduced with dithiothreitol (200 mM DTT) followed by S-alkylation with iodoacetamide (400 mM IAM). The denatured, reduced protein was buffer-exchanged (50 mM TRIS, 10 mM CaCl2), pH 7.6) prior to digestion with trypsin. The resulting digested mixture was then analyzed by reverse-phase ultra-performance liquid chromatography (RP-UPLC) using UPLC BEH C18 Column, […], 130 angstrom, 2.1×100 mm (Waters, Catalog no. 186002352) with Mobile Phase A (0.1% TFA, 50 mM Methionine in HPLC Grade Water) and Mobile Phase B (0.1% TFA, 50 mM Methionine in 80% ACN and 20% HPLC grade water). Protein detection at 215 nm absorbance and fluorescent excitation/emission of 275 nm/303 nm and 280 nm/348 nm was used to quantify relative levels of oxidation and deamidation respectively.

For series [4], the system named is fusion proteins Fus1 and Fus2. Kind of series: SEC analysis of HMW formation and aggregation kinetics of fusion proteins with detergents. It is filed as physicochemical. As for the experimental part:
Size exclusion chromatography (SEC) was performed in a Waters HPLC Alliance 2695 System using TSKgel G3000SWXL Column (Tosoh Bioscience, Catalogue no. 085430) with guard column (Tosoh Bioscience, Catalogue no. 08541) in line. A mobile phase of 0.2 M Sodium phosphate, monobasic, 0.9% NaCl, pH 7.0 was used with 20 μL injection volumes at 1 to 10 mg/mL target protein concentrations with a flow rate of 1 mL/minute. Tandem SEC was performed with 50 μL injection volumes with a flow rate of 0.5 mL/minute using 6 TSKgel G3000SWXL Column using 0.2 M KH2PO4, 0.9% NaCl, pH 6.8 as mobile phase.
Given N is the monomer species, No is the initial monomer % at time t=0, aggregation follows first order kinetics with k1 being the rate constant of aggregation as shown in Equation (1) (Derivation in Supplemental Information).

The target of a further series is T2, Fus1 (Homo sapiens, UniProt P16410).
T2 construct: made in house; host or cells: CHO
T2 sequence (P16410 with tags, fused parts or gaps): as the sequence (P16410 with tags, fused parts or gaps A66Y/L141E limits assumed) above, with Y29A, E104L counted along it
The series is described as follows: Oxidation of Fus1 (tryptic digest RP-UPLC) after detergent spiking of harvest. It is filed as physicochemical. The following applies: Fus1 harvest spiked with detergent at 1×CMC, protein A eluate. As for the experimental part:
as §3

A further series has as its system lipid-enveloped viruses. The series is described as follows: Viral inactivation, summary statements (LRV equal or above 4 criterion). Format: cell-based. To be noted: detergent below its CMC, e.g. 0.5×CMC; virus not named. The text has this:
The present disclosure relates to detergent-mediated inactivation of lipid-enveloped viruses. […] The current commercially available detergent for such process is Triton X-100.
Several environmentally friendly detergents for the viral inactivation step of biologics manufacturing processes have been identified in the art, e.g., Lauryldimethylamine Oxide (LDAO) and ECOSURF™ EH9. These systems for viral inactivation use a single detergent. The present disclosure provides a detergent mixture comprising two environmentally sustainable detergents: n-Octyl-β-D-Glucopyranoside (OG) and n-Dodecyl-β-D-Maltopyranoside (DDM). […] Accordingly, the disclosed combination of OG and DDM can be used as substitute of Triton X-100 for the viral inactivation step in the production of biologics, for example, in the process used to manufacture ORENCIA®.

In a further series the test system is B7.1 Ig. Kind of series: Potency: Surface Plasmon Resonance binding of CTLA-4 domain of Fus1 to B7.1 Ig in presence of detergent. The following applies: high concentration Fus1 DS; detergent at 10×CMC; 24 hours, room temperature. Here is the method: The potency was determined by measuring the binding efficacy of the CTLA-4 (cytotoxic T-lymphocyte-associated protein 4) domain of the fusion proteins against the complementary binding domain of membrane protein B7.1 Ig, typically found on activated antigen-presenting cells (APC). Drug efficacy for the purified DS was evaluated using a Surface Plasmon Resonance assay; the binding efficacy of the CTLA-4 domain of Fus1 and Fus2 against a high concentration of the peripheral membrane protein B7.1 Ig was examined. Due to the influence of impurities on the binding efficacy, only DS was tested.

On to `CCCCCCCCCCO[C@@H]1O[C@H](CO)[C@@H](O[C@H]2O[C@H](CO)[C@@H](O)[C@H](O)[C@H]2O)[C@H](O)[C@H]1O` [DM, n-Decyl-β-D-Maltopyranoside], for which, in the series with X-MuLV (detergent at 10×CMC), the “Log reduction value (LRV) of X-MuLV” value turned out to be 2.0 LRV.
In the case of Triton X-100, in series [1], the HLB value is listed as 13.5. Further, the “Log reduction value (LRV) of X-MuLV” value in the series on X-MuLV (detergent at 1×CMC) and in the series with X-MuLV (detergent at 10×CMC) was not below 4.85±0.5 LRV throughout.
For “Fus1: fusion protein abatacept (CTLA4-Ig, SEQ ID NO:1 proteins)”, in the series “Isoelectric point (pI)”, the pI is reported as approximately 5.0. Further, the “NANA (N-acetylneuraminic acid): protein molar concentration” value in series [2] was 8 to 12%.
On the same counts, the results for “Fus2: fusion protein belatacept (SEQ ID NO:2 proteins)” are approximately 5.0 and 6 to 8.5%.
Turning to Polysorbate 80 [PS80], in the series on A-MuLV, the “Inactivation of A-MuLV” value is given as “No inactivation”. The “Inactivation of HSV-1” value with HSV-1 was “No inactivation”. In addition, the “Inactivation of X-MuLV” value in the series with X-MuLV (detergent concentration not stated) was “No inactivation”.
Turning to `CCCCCCCCCCCC[N+](C)(C)[O-]` [LDAO, Lauryldimethylamine Oxide], the LRV in series [3] (fusion protein at 2-8° C. (Conley et al.)) is approximately 3.0 LRV; in series [3] (fusion protein at room temperature (Conley et al.)) it was approximately 4.0 LRV; in [3] (mAb under the same conditions, 2-8° C. (Conley et al.)), 4.0 LRV.
As for `CCCCCCCCO[C@@H]1O[C@H](CO)[C@@H](O)[C@H](O)[C@H]1O` [OG, n-Octyl-β-D-Glucopyranoside], at Fus2, the “Oxidation of Fus2” value was “higher oxidation”. The “HMW formation (rank among detergents)” value in series [4] (SEC, DS and clarified harvest of Fus1 and Fus2) was “greatest”. Moreover, the “Rate of aggregation (rank among OG, DDM, LDAO)” value in series [4] (high concentration DS of Fus1 and Fus2) was “fastest rate of aggregation”. Also, on Fus1, the “Oxidation of Fus1” value is reported as “higher oxidation”. The “Viral inactivation (defined as a LRV equal or above 4)” value in the series with lipid-enveloped viruses was “insufficient for viral inactivation”. Besides, the “Potency (B7 binding efficiency relative to reference material)” value in the series with B7.1 Ig is “less than 60%”.
